From patent publication US11952328B2, “Selective ship inhibitors for treating disease” (THE RESEARCH FOUNDATION FOR THE STATE UNIVERSITY OF NEW YORK, priority 2018, dated 2024)

System: NK cells and T cells
Experiment: NK and T cell numbers, maturation and FasL expression by flow cytometry after two-day treatment
Format: in vivo, mice
Text: FIGS. 5A-5I show the effects of SHIP1 inhibitor as a chemotherapeutic. […] FIG. 5D and FIG. 5E show the representative histograms and box-and-whisker plots of FasL expression by NK cells from C56BL/6 (p=0.0002; Unpaired t test with Welch's correction) or RAG1−/− (p<0.0001; Mann-Whitney U test) tumor challenged, SHIP inhibitor or vehicle treated hosts. […] (NK cells p=0.0192; Unpaired t test with Welch's correction. T cells p=0.0659; Mann-Whitney U test). Additionally, FIGS. 5A-5G show the analysis by flow cytometry on day 3 after hosts receive SHIP inhibitor or vehicle for two consecutive days. NK cells are defined as NK1.1+CD3ε−. The graphs are representative of at least two independent experiments with at least four SHIP inhibitor and vehicle treated mice. […] Viability is expressed as frequency at a given concentration expressed as a percentage of solvent only treated cells. The kill curve summarizes pooled data from three independent experiments using six replicate wells/concentration with mean ±SEM indicated (n=18 per group. One-way ANOVA with Dunnett's multiple comparisons. 0 pM vs. 20 pM Adjusted p value =0.0001. 0 pM vs. 15 pM Adjusted p value =0.0001. 0 pM vs. 10 pM Adjusted p value =0.0001. 0 pM vs. 7.5 pM Adjusted p value =0.0001. 0 pM vs. 5 pM Adjusted p value =0.0001).
NK cells are able to directly kill target cells through several different mechanisms including both production of perforin and granzymes and induction of apoptosis via Fas-FasL signaling (Arase, H. et al., Fas-mediated cytotoxicity by freshly isolated natural killer cells. J Exp Med. (1995); 181: 1235-1238; Zamai, L. et al., Natural killer (NK) cell-mediated cytotoxicity: differential use of TRAIL and Fas ligand by immature and mature primary human NK cells. J Exp Med. (1998); 188: 2375-2380). […] SHIP1 was recently shown to be recruited to CD95/Fas to set a threshold for induction of Caspase 8, and thereby, a threshold for induction of apoptosis (Park, M. Y. et al., Impaired T-cell survival promotes mucosal inflammatory disease in SHIP1-deficient mice. Mucosal Immunol. (2014); 7: 1429-1439). This pathway might contribute to 3AC-mediated killing of lymphoma cells in a host-extrinsic fashion and, possibly, even to NK cell mediated clearance of tumor in vivo. To explore this possibility, whether 3AC induces FasL, the death ligand, on cytotoxic host cells present in the tumor site was examined. […] This is consistent with what has been previously reported with multiple myeloma, myeloid leukemias and T cell leukemia, and that others have recently reported in preB ALL (Park, M. Y. et al., Impaired T-cell survival promotes mucosal inflammatory disease in SHIP1-deficient mice. Mucosal Immunol. (2014); 7: 1429-1439; Brooks, R. et al., SHIP1 inhibition increases immunoregulatory capacity and triggers apoptosis of hematopoietic cancer cells. J Immunol. (2010); 184: 3582-3589; Fuhler, G. M. et al., Therapeutic potential of SH2 domain-containing inositol-5′-phosphatase 1 (SHIP1) and SHIP2 inhibition in cancer. Mol Med. (2012); 18: 65-75; Chen, Z. et al, Signalling thresholds and negative B-cell selection in acute lymphoblastic leukaemia. Nature. (2015)) . […] Therefore, the improved tumor clearance and survival following acute 3AC treatment in vivo may result from both a chemotherapeutic effect and enhanced immune control.

CC(C)CCC[C@@H](C)[C@H]1CC[C@H]2[C@@H]3CCC4C[C@H](N)CC[C@]4(C)[C@H]3CC[C@]12C (stereo partly drawn) [Compound 3AC, 3-α-aminocholestane]
FasL expression, splenic NK cells (C57BL/6 mice, vs vehicle): small, but significantly increased frequency
terminal maturation of the peripheral NK cell compartment (spleen, naive or tumor challenged C57BL/6 hosts, vs vehicle): significantly increased
number of NK cells at the tumor site in the peritoneal cavity (tumor challenged C57BL/6 hosts, vs vehicle): significantly increased
FasL expression of host NK cells and T cells at the tumor site (tumor challenged hosts, vs vehicle): profound acquisition of FasL
number of splenic NK cells (two days of treatment vs vehicle): decreased numbers
